Measured values: patent US6825209B2, “Compounds having unique CB1 receptor binding selectivity and methods for their production and use” (Research Triangle Institute, priority 2002, dated 2004)
Read-outs that look alike come from different tables or passages of the source.

Experiments:
Assay type in all cases: binding
CB1 receptor = target: T1, CB1 receptor (Rattus norvegicus, UniProt P20272); assay: Radioligand displacement in whole rat brain (CB1) membrane preparations
T1 construct: Whole rat brains or dissected regions from live CD rats; tissue Charles River or Pel-Freez Biologicals; host or cells: whole rat brain (CD rats), P2 membrane
T1 sequence (P20272 whole entry): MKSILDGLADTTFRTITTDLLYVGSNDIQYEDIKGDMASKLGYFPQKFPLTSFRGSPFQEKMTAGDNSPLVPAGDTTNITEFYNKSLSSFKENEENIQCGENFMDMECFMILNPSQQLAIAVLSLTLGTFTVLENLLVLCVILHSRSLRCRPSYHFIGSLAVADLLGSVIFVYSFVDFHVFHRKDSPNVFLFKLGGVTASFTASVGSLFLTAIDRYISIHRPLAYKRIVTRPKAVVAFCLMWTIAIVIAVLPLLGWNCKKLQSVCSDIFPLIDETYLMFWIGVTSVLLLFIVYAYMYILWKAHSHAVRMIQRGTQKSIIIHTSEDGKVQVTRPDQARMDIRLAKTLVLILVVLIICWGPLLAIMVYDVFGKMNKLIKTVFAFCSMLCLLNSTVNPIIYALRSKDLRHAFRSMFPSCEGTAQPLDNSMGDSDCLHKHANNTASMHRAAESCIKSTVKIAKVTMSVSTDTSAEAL
Source text: CB1 receptor affinity in rat brain.
Methods—membrane preparation from brain. The methods for tissue preparation are essentially those described by Devane et al. (1988) as modified by Compton et al. (1993) and later by Thomas et al. (1998). Whole rat brains or dissected regions from live CD rats from Charles River or Pel-Freez Biologicals (Rogers, Ark.), or human brain sections obtained from the National Disease Research Institute, were allowed to thaw to room temperature on ice. Both whole brain and dissected brain regions were used because different brain regions may express different cannabinoid receptor subtypes (Skaper et al., 1996; Thomas et al., 1998). The tissue was homogenized with a Kontes Potter-Elvehjem glass-Teflon grinding system (Fisher Scientific, Springfield, N.J.) in buffer 1 (320 mM sucrose, 2 mM EDTA, 5 mM MgCl2. The homogenate was centrifuged at 1600 g for 10 min. The supernatant was saved and combined with the two subsequent supernatants obtained from washing and 1600 g centrifugation of the P1 pellet. The combined supernatant fractions were then centrifuged at 39,000 g for 15 min. The P2 pellet was resuspended in 50 mL of buffer 2 (50 mM Tris.HCl, 2 mM EDTA, 5 mM MgCl2, pH 7.0), incubated at 37° C. for 10 min, then centrifuged at 23,000 g for 10 min. The P2 membrane was resuspended in 50 mL of buffer 2, incubated at 30° C. for 40 min, then centrifuged at 11,000 g for 15 min. The final wash-treated P2 pellet was resuspended in assay buffer 3 (50 mM Tris.HCl, 1 mM EDTA, 3 MM MgCl2, pH 7.4). Protein concentrations were determined by the method of Bradford (1976) using Coomassie brilliant blue dye (Bio-Rad, Richmond, Calif.) and BSA standards (bovine serum albumin, fatty acid free, Sigma Chemical Co., St. Louis, Mo.) prepared in assay buffer 3. The membrane preparation was divided into aliquots and stored at −80° C. For use in the binding assay, an aliquot of frozen membranes was thawed on ice and diluted to a concentration of ca. 0.2 mg/mL in assay buffer.
Methods—binding assay in brain membrane preparation. The methods for ligand binding are essentially those described by Devane et al. (1988) with the exception that we used a filtration assay. […] All cannabinoid analogs were prepared by suspension in buffer A from a 1-5 mg/mL ethanolic stock. Following incubation at 30° C. for 1 h, binding was terminated by vacuum filtration through pretreated filters in a 96-well sampling manifold (Millipore, Bedford, Mass.). Reaction vessels were washed at least 3 times with 1 mL of ice cold buffer B (50 mM Tris.HCl, 1 mg/mL BSA). The filter plates were air-dried and sealed on the bottom. Liquid scintillant was added to the wells and the top sealed. After incubating the plates in cocktail for at least 2 h, the radioactivity present was determined by liquid scintillation spectrometry. Assays were done in duplicate, and results represent the combined data of three to six independent experiments. All assays were performed in polypropylene test tubes. The GF/C glassfiber filter plates (Packard, Meriden, Conn.) were pretreated in buffer B for at least 1 h.
(§1) Data analysis. Saturation and displacement data were analyzed by unweighted nonlinear regression of receptor binding data. For displacement studies, curve-fitting and IC50 calculation were done with GraphPad Prism (GraphPad Software, Inc., San Diego, Calif.), which fits the data to one and two-site models and compares the two fits statistically. A similar approach was used for the analysis of isotherm data for calculation of Kd's. A two-site fit was accepted only if it was statistically significant (p<0.05) and the following results were not observed:
(§2) IC50 values were then converted to Ki values by reported methods (Cheng and Prusoff, 1973). The statistical evaluation of curve-fitting data allowed for a non-arbitrary conclusion based on the displacement data.

human CB2 receptor = target: T2, human CB2 receptor (Homo sapiens, UniProt P34972); assay: Displacement of 3H-CP55,940 in human CB2 receptor-transfected cells (CHO-K1); conditions: radioligand 3H-CP55940, Tables 6 and 7
T2 construct: expressed in transfected cells; host or cells: CHO-K1
T2 sequence (P34972 whole entry): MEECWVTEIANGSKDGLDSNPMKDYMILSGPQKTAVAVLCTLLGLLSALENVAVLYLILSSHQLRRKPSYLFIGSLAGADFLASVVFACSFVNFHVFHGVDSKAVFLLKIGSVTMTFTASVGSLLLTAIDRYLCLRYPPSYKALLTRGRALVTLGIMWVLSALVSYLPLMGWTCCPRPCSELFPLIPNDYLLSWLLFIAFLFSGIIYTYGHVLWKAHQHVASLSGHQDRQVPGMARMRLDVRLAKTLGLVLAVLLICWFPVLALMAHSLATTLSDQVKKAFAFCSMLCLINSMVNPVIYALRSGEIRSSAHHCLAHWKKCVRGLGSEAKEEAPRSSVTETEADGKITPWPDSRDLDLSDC
Method: Human CB2 receptor affinity. The relative selectivity of the analogs for CB1 versus CB2 receptors varied modestly regardless of the structural modifications examined to date.
(§3) Methods—binding assay in transfected cell lines. The methods used for performing binding assays in transfected cells expressing human CB1 or CB2 receptors are those used above. The CB1 receptor involved a HEK-293 expression system whereas the CB2 receptor was expressed in CHO-K1 cells. […] The incubations and separations were then performed as described above for rat brain membrane preparations.
as §1, §2

human CB1 receptor = target: T3, human CB1 receptor (Homo sapiens, UniProt P21554); assay: Radioligand displacement in human CB1 receptor-transfected cells (HEK-293)
T3 construct: expressed in transfected cells; host or cells: HEK-293
T3 sequence (P21554 whole entry): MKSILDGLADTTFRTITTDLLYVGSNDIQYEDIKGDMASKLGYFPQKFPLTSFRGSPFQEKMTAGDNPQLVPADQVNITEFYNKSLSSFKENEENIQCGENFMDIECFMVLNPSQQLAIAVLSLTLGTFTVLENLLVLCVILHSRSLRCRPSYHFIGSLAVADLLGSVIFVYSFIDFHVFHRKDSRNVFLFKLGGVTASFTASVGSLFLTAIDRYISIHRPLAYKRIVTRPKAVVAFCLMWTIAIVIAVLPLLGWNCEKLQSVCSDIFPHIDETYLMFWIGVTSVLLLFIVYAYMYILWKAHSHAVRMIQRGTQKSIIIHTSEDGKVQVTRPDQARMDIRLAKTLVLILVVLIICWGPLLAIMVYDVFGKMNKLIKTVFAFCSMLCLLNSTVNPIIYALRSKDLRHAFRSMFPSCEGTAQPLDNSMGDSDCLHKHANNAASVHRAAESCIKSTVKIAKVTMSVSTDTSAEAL
Method: Human CB1 receptor affinity. The alkyl amide analogs of the present invention were examined using transfected cell lines expressing the human CB1 receptor (Table 3).
as §3, §1, §2

[1] = whole rat brain membranes, radioligand 3H-CP55940, Tables 1 and 2
[2] = whole rat brain membranes, radioligand 3H-SR141716A, Tables 1 and 2
[3] = Ki, displacement of 3H-CP55940, whole rat brain, 3H-CP55940, Table 4, parallel synthesis analogs, n = 1, concentration assumes 100% yield
[4] = Ki, displacement of 3H-SR141716A, whole rat brain, 3H-SR141716A, Table 4, parallel synthesis analogs, n = 1, concentration assumes 100% yield
[5] = Ki, displacement of 3H-WIN55212-2, whole rat brain, 3H-WIN55212-2, Table 4, parallel synthesis analogs, n = 1, concentration assumes 100% yield
[6] = whole rat brain, 3H-SR141716A, Table 4, parallel synthesis analogs, n = 1
[7] = whole rat brain, 3H-WIN55212-2, Table 4, parallel synthesis analogs, n = 1
[8] = displacement of 3H-CP55940, human CB1 transfected cells, 3H-CP55940, Table 5, parallel synthesis analogs, concentration assumes 100% yield
[9] = displacement of 3H-SR141716A, human CB1 transfected cells, 3H-SR141716A, Table 5, parallel synthesis analogs, concentration assumes 100% yield
[10] = displacement of 3H-WIN55212-2, human CB1 transfected cells, 3H-WIN55212-2, Table 5, parallel synthesis analogs, concentration assumes 100% yield
[11] = human CB1 transfected cells, 3H-CP55940, Table 5, parallel synthesis analogs
[12] = human CB1 transfected cells, 3H-SR141716A, Table 5, parallel synthesis analogs
[13] = human CB1 transfected cells, 3H-WIN55212-2, Table 5, parallel synthesis analogs
[14] = whole rat brain, 3H-CP55940, Table 4, parallel synthesis analogs, n = 1

SMILES	Max. Disp. %, 3H-CP55940 (CB1 receptor; [1]) [%]	Max. Disp. %, 3H-SR141716A (CB1 receptor; [2]) [%]	Max. Disp. %, 3H-CP55940 (human CB2 receptor; human CB2 transfected cells) [%]	Ki (CB1 receptor; [3]) [nM]	Ki (CB1 receptor; [4]) [nM]	Ki (CB1 receptor; [5]) [nM]	Max. Disp. %, 3H-SR141716A (CB1 receptor; [6]) [%]	Max. Disp. %, 3H-WIN55212-2 (CB1 receptor; [7]) [%]	Ki (human CB1 receptor; [8]) [nM]	Ki (human CB1 receptor; [9]) [nM]	Ki (human CB1 receptor; [10]) [nM]	Max. Disp. %, 3H-CP55940 (human CB1 receptor; [11]) [%]	Max. Disp. %, 3H-SR141716A (human CB1 receptor; [12]) [%]	Max. Disp. %, 3H-WIN55212-2 (human CB1 receptor; [13]) [%]	Max. Disp. %, 3H-CP55940 (CB1 receptor; [14]) [%]	further results
Cc1c(C(=O)O)nn(-c2ccc(Cl)cc2Cl)c1-c1ccc(Cl)cc1 [SH9631-55]	8.2	0	0.0													Ki, displacement of 3H-SR141716A (CB1 receptor; [2]): Nr; Ki, displacement of 3H-CP55940 (human CB2 receptor; human CB2 transfected cells): nr
Cc1c(C(=O)NC(C)Cc2ccc(Cl)cc2)nn(-c2ccc(Cl)cc2Cl)c1-c1ccc(Cl)cc1 (centres unmarked) [AKS-10262-10]				18.4	2.7	10.1	95.9	86.1	22.9	2.38	70.2	94.8	100	65.5		
Cc1c(C(=O)NO)nn(-c2ccc(Cl)cc2Cl)c1-c1ccc(Cl)cc1 [MF9725-131-25]	58.4	65.7	27.0													Ki (CB1 receptor; read-out: Ki, displacement of 3H-CP55940, whole rat brain membranes, radioligand 3H-CP55940, Tables 1 and 2): 1690 nM; Ki (CB1 receptor; read-out: Ki, displacement of 3H-SR141716A, whole rat brain membranes, radioligand 3H-SR141716A, Tables 1 and 2): 1560 nM; Ki (human CB2 receptor; read-out: Ki, displacement of 3H-CP55940, human CB2 transfected cells): 7820 nM
CCCCCCCCCCNC(=O)c1nn(-c2ccc(Cl)cc2Cl)c(-c2ccc(Cl)cc2)c1C [BT-1]				92.8	45	1390	92.5	67.4							83.6	Max. Disp. %, 3H-CP55940 (human CB1 receptor): 94.5%; Max. Disp. %, 3H-SR141716A (human CB1 receptor): 95.4%; Max. Disp. %, 3H-WIN55212-2 (human CB1 receptor): 12.4%; Ki (human CB1 receptor; displacement of 3H-CP55940): 184 nM; Ki (human CB1 receptor; displacement of 3H-SR141716A): 24.6 nM; Ki (human CB1 receptor; displacement of 3H-WIN55212-2): 63.8 nM
CCCCCCCCCC(C)NC(=O)c1nn(-c2ccc(Cl)cc2Cl)c(-c2ccc(Cl)cc2)c1C (centres unmarked) [AKS-10262-3]				27.1	9.7	22.3	97.3	82.4	41.1	7	22.2	77.7	90.0	76.1	83.7	
CCCCCC(CC)NC(=O)c1nn(-c2ccc(Cl)cc2Cl)c(-c2ccc(Cl)cc2)c1C (centres unmarked) [AKS-10262-5]				19.6	8.6	25.8	95.7	85.1	9.6	3.8	78.6	91.4	95.9	100	89.5	
CCCCCCC(C)(C)NC(=O)c1nn(-c2ccc(Cl)cc2Cl)c(-c2ccc(Cl)cc2)c1C [MF10110-119-11]	83.2	76.4	52.8													Ki (CB1 receptor; Ki, displacement of 3H-CP55940, whole rat brain membranes, radioligand 3H-CP55940, Tables 1 and 2): 181 nM; Ki (CB1 receptor; Ki, displacement of 3H-SR141716A, whole rat brain membranes, radioligand 3H-SR141716A, Tables 1 and 2): 21.6 nM; Ki (CB1 receptor; Ki, displacement of 3H-WIN55212-2, whole rat brain membranes, radioligand 3H-WIN55212-2, Tables 1 and 2): 10.4 nM; Max. Disp. %, 3H-WIN55212-2 (CB1 receptor; whole rat brain membranes, radioligand 3H-WIN55212-2, Tables 1 and 2): 72.2%; Max. Disp. %, 3H-SR141716A (human CB1 receptor): 99.9%; Max. Disp. %, 3H-WIN55212-2 (human CB1 receptor): 86.5%; Ki (human CB1 receptor; displacement of 3H-CP55940): 32.7 nM; Ki (human CB1 receptor; displacement of 3H-SR141716A): 5 nM; Ki (human CB1 receptor; displacement of 3H-WIN55212-2): 14.4 nM; Ki (human CB2 receptor; Ki, displacement of 3H-CP55940, human CB2 transfected cells): 16600 nM

More lines, main results first:

Max. Disp. %, 3H-CP55940 (CB1 receptor; [1]) [%]	Max. Disp. %, 3H-SR141716A (CB1 receptor; [2]) [%]	Max. Disp. %, 3H-CP55940 (human CB2 receptor; human CB2 transfected cells) [%]	Ki (CB1 receptor; [3]) [nM]	Ki (CB1 receptor; [4]) [nM]	Ki (CB1 receptor; [5]) [nM]	Max. Disp. %, 3H-SR141716A (CB1 receptor; [6]) [%]	Max. Disp. %, 3H-WIN55212-2 (CB1 receptor; [7]) [%]	Ki (human CB1 receptor; [8]) [nM]	Ki (human CB1 receptor; [9]) [nM]	Ki (human CB1 receptor; [10]) [nM]	Max. Disp. %, 3H-CP55940 (human CB1 receptor; [11]) [%]	Max. Disp. %, 3H-SR141716A (human CB1 receptor; [12]) [%]	Max. Disp. %, 3H-WIN55212-2 (human CB1 receptor; [13]) [%]	Max. Disp. %, 3H-CP55940 (CB1 receptor; [14]) [%]	SMILES	further results
			194	44.6	152	90.5	89.0	57.7	21	166	66.3	90.4	74.6	88.3	Cc1c(C(=O)N2CCc3ccccc3C2)nn(-c2ccc(Cl)cc2Cl)c1-c1ccc(Cl)cc1 [AM-50]	
			113	41.2	69.5	97.2	94.4	52.1	28.2	56.9	79.6	99.2	100	97.2	Cc1c(C(=O)N2CCC(O)(c3ccccc3)CC2)nn(-c2ccc(Cl)cc2Cl)c1-c1ccc(Cl)cc1 [AM-28]	
			92.6	40.7	24.7	95.1	82.7	56.9	16.1	74.5	80.3	96.3	100	78.8	COc1ccc(CCNC(=O)c2nn(-c3ccc(Cl)cc3Cl)c(-c3ccc(Cl)cc3)c2C)cc1 [AM-29]	
